Laboratory results taken from publication PMC10605077, “In Vitro and In Silico Antiviral Activity of Di-Halogenated Compounds Derived from L-Tyrosine against Human Immunodeficiency Virus 1 (HIV-1)” (Current Issues in Molecular Biology, 2023).

How the values were obtained:
MTT cytotoxicity assay = format: cell-based; conditions: human; TZM-bl cells, MTT, 48 h
Description: The in vitro cytotoxic effect of the di-halogenated compounds on TZM-bl cells was determined with the MTT (3-(4,5-Dimethylthiazol-2-yl)-2,5-diphenyltetrazolium bromide) assay (Sigma-Aldrich, St. Louis, MO, USA). For this purpose, 1.2 × 10^5 cells/well were seeded in 96-well plates, which were incubated at 37 °C and 5% CO2 for 24 h. DMEM was used as a negative control and serial two-fold dilutions of the compounds were performed at 9.37 to 300 μM in DMEM supplemented with 5% FBS. A total of 100 μL/well of each dilution was added and incubated for 48 h. Subsequently, the cells were washed 2 times with 1X PBS, and 30 μL of MTT solution (2 mg/mL) was added and incubated for 2 h at 37 °C, in a light-protected culture. Then, 100 µL of DMSO was added to dissolve the formazan crystals, placed in shaking for 15 min, and absorbance reading was performed at 570 nm, using the Microplate Spectrophotometer (Thermo Scientific™ Multiskan™ GO, Waltham, MA, USA). Two independent experiments evaluated each experimental condition in quadruplicate (n = 8). The percentage of viability was calculated concerning the absorbance of the controls without a compound (100% viability). The 50% cytotoxic concentration was defined as the concentration of each compound that can reduce cell viability to 50% of the untreated cell control. CC50 was calculated and analyzed with GraphPad Prism version 8.0.1 (GraphPad Software, Inc., San Diego, CA, USA).

HIV-1 BaL [1] = assay: Anti-HIV activity in PBMC, intracellular p24 by flow cytometry; format: cell-based; conditions: 7 days
Description: In the presence of various concentrations of the most bioactive compounds, 1×10^6 PBMCs previously stimulated with 8 μg/mL of PHA and 50UI/mL of IL-2 were treated for 1 h. […] After spinoculation, cells were washed twice with PBS 1x to remove free virions, and then, fresh medium supplemented with 20 UI/mL of IL-2, with or without the di-halogenated compounds derived from L-Tyrosine dilutions, was added. Cells were plated in 96-well culture plates and incubated for 7 days. […] In addition, antiviral activity was also assessed by measuring intracellular p24 in harvested cells. Briefly, cells were stained with fixable viability dye eFluor 506 (eBioscience, Leicestershire, UK), CD3 (UCHT1; Thermo Scientific, Wilmington, DE, USA), CD4 (RPA-T4; BD Biosciences, San Jose, CA, USA), and p24 PE (KC57; Beckman Coulter, Pasadena, CA, USA), as detailed in the manufacturer’s protocol. Later, cells were washed and resuspended in PBS, and the lecture was measured instead in the LS Fortessa cytometer (BD Biosciences, Franklin Lakes, NJ, USA). Data were analyzed using FlowJo version 10.5.3 (FlowJo, LLC, Ashland, OR, USA).

[2] = test system: HIV-GFP-VSV-G reporter virus; assay: microbe, parasite or virus in culture; format: cell-based, HIV-1; conditions: Human immunodeficiency virus 1, TZM-bl, read-out: percentage inhibition of HIV-GFP-VSV-G replication
[3] = Viability assay of PBMC, flow cytometry with viability dye; format: cell-based, Human; conditions: human, PBMC stimulated with PHA and IL-2; all concentrations tested (18.75 μM up to 150 μM), 7 days; read-out: viability level on PBMCs
Description: PBMCs were thawed and let in the culture in RPMI with 10% fetal bovine serum (FBS) (Gibco, Grand Island, NY, USA) for 24 h before each experiment. Cells were stimulated for 48 h with 8 μg/mL of Phytohemagglutinin-PHA (Sigma-Aldrich, St. Louis, MO, USA) and 50 UI/mL of IL-2 (Peprotech, Rocky Hill, CT, USA). In the presence of various concentrations of di-halogenated compounds derived from L-Tyrosine, 2 × 10^5 cells per well were treated and resuspended in 200 µL of fresh medium with 20 UI/mL of IL-2 and incubated in 96-well culture plates for 7 days. After 7 days post-treatment, cell viability was determined using flow cytometry. Briefly, cells were stained with fixable viability dye eFluor 506 (eBioscience, Leicestershire, UK) as detailed in the manufacturer’s protocol for 30 min in the dark. Later, cells were washed and resuspended in PBS, and the percentage of viable cells was measured instead in the LS Fortessa cytometer (BD Biosciences, Franklin Lakes, NJ, USA). Data were analyzed using FlowJo version 10.5.3 (FlowJo, LLC, Ashland, OR, USA).

HIV-1IIIB (X4) = assay: Anti-HIV activity in infected TZM-bl cells (luciferase), pre- and post-infection treatment; format: cell-based, Human Immunodeficiency Virus Type 1 (HIV-1); conditions: TZM-bl cells
Description: TZM-bl cells were plated in a flat-bottom 96-well plate (Corning Inc., Corning, New York, NY, USA) at the concentration of 1.2 × 10^5 cells/well and incubated for 24 h at 37 °C before the addition or not of each compound at non-cytotoxic concentrations (pre-infection treatment). Then, 1 h later the treatment was removed, and the infection was performed by adding 10 ng/mL of HIV-1IIIB p24 (X4) or 2 ng/mL of HIV-1 BaL (R5). After 3 h, the virus was removed and washed, and the compound dilutions were added again (post-infection treatment). Additionally, three wells were left for the negative control (cells without treatment or infection), the positive control of infection (cells infected with the virus without treatment), and the positive control of inhibition (AZT). Antiviral activity was quantified 48 h after treatment by measuring luciferase activity, which is directly proportional to the number of infectious virus particles in the sample [23]. The luciferase activity was quantified via luminescence emitted by the cells using Bright-GloTM Luciferase Assay System (Promega Corp., Madison, WI, USA), following the manufacturer’s instructions. Briefly, 100 μL of the reagent was added to 100 μL of TZM-bl cells and incubated for at least 2 min, protected from light. Relative light units (RLUs) were measured using the multi-mode plate reader (Thermo ScientificTM VarioskanTM LUX). Each experimental condition was performed in triplicate in two independent experiments (n = 6). The percentage inhibition was calculated as follows: 100 − (RLU of treated cells − RLU of uninfected cells/RLU of infection control − RLU of uninfected cells) × 100.

HIV-1 BaL [4] = assay: Anti-HIV activity in PBMC, p24 ELISA of supernatant; format: cell-based; conditions: 150 μM, supernatant, 7 days

## COc1c(Cl)cc(C[C@@H](C(=O)O)N(C)C)cc1Cl [TODC-2M]
MTT cytotoxicity assay
  CC50 at 48 h: > 300 µM
HIV-1 BaL [1]; Human immunodeficiency virus 1, BAL, PBMC, 168 h, 18.75 μM, read-out: inhibition of HIV-1 BaL replication in PBMC, flow cytometry (intracellular p24)
  inhibition at 18.75 µM: 50.6%
HIV-1 BaL [1]; Human immunodeficiency virus 1, BAL, PBMC, 168 h, 75 μM, read-out: inhibition of HIV-1 BaL replication in PBMC, flow cytometry (intracellular p24)
  inhibition at 75 µM: 69.6%
HIV-1 BaL [1]; Human immunodeficiency virus 1, BAL, PBMC, 168 h, 150 µM, read-out: inhibition of HIV-1 BaL replication in PBMC, flow cytometry (intracellular p24)
  inhibition at 150 µM: > 60%
HIV-1 BaL [1]; all concentrations
  inhibition of HIV-1 BaL replication in PBMC, flow cytometry (intracellular p24): over 50%
[2]
  inhibition at 150 µM: 29%
[3]
  viability at 7 days: > 90%
HIV-1IIIB (X4); Human immunodeficiency virus 1, TZM-bl, 18 µM, read-out: Percentage inhibition of HIV-1IIIB (X4 strain) replication
  inhibition at 18 µM: -18.5%
HIV-1IIIB (X4); Human immunodeficiency virus 1, TZM-bl, 37 µM, read-out: Percentage inhibition of HIV-1IIIB (X4 strain) replication
  inhibition at 37 µM: 40.6%
HIV-1IIIB (X4); Human immunodeficiency virus 1, TZM-bl, 75 µM, read-out: Percentage inhibition of HIV-1IIIB (X4 strain) replication
  inhibition at 75 µM: 62.8%
HIV-1IIIB (X4); Human immunodeficiency virus 1, TZM-bl, 150 µM, read-out: Percentage inhibition of HIV-1IIIB (X4 strain) replication
  inhibition at 150 µM: 99.6%
HIV-1IIIB (X4); Human immunodeficiency virus 1, HIV-1IIIB (X4), luciferase, 48 h
  IC50: ~39.1 µM
HIV-1 BaL [4]
  inhibition of HIV-1 BaL in PBMC, extracellular p24 ELISA: 21.6%
HIV-1 BaL [4]; Human immunodeficiency virus 1, BAL, PBMC, 168 h, read-out: inhibition of HIV-1 BaL in PBMC, extracellular p24 ELISA
  inhibition at 150 µM: > 20%
